Reference: paper PMC9138790 (2022)

Test system: polyA (polyadenine) (DNA, polymer) A
Assay: differential pulse voltammetry, dAdo oxidation signal decrease
Conditions: 0.1 M acetate buffer pH 4.7; 10 µg/mL CIN, 20 min; dAdo signal falls to S% 50

Structure (SMILES): C[C@@H](NCCCc1cccc(C(F)(F)F)c1)c1cccc2ccccc12
- binding: yes
